Results published in patent publication US20100121108A1, “PROCESS FOR SYNTHESIZING DESVENLAFAXINE FREE BASE AND SALTS OR SOLVATES THEREOF” (MEDICHEM, S.A., priority 2006, published 2010).

Experiments:
[1] = BET specific surface area (Micromeritics ASAP2010, N2 adsorption); format: physicochemical; conditions: N2 at 77.3 K
Experimental: The BET (Brunauer, Emmett and Teller) specific surface area for desvenlafaxine succinate was measured using a Micromeritics ASAP2010 equipment. Samples for analysis were degassed at 30° C.-70° C. under vacuum for about two hours. The determination of the adsorption of N2 at 77.3° K was measured for relative pressures in the range of 0.05-0.3 for a weighed amount of desvenlafaxine succinate (i.e., approximately 0.5 g).

[2] = Particle size by Malvern Mastersizer S (volume distribution); format: physicochemical
Experimental: The particle size for desvenlafaxine succinate was measured using a Malvern Mastersizer S particle size analyzer with an MS1 Small Volume Sample Dispersion Unit stirred cell. A 300RF mm lens and a beam length of 2.4 mm were used. Samples for analysis were prepared by dispersing a weighed amount of desvenlafaxine succinate (approximately 0.1 g) in 20 mL of Lecithin Solution, previously prepared by dilution of 1.5 g of Soybean Lecithin to 200 mL of Isopar G. Mix gently until Lecithin dissolves (Lecithin solution). If it is necessary the solution can be sonicated. The suspension was delivered drop-wise to a background corrected measuring cell previously filled with dispersant (Isopar G) until the obscuration reached the desired level. Volume distributions were obtained for three times. Before and after the analysis, purge the sample and flush the MS1 unit with ethanol twice and with the dispersant at least three times. For characterization, the values of D10, D50 and D90 (by volume) were specifically listed, each one being the mean of the […] values available for each characterization parameter.

[3] = milled and sieved desvenlafaxine succinate

- surface area [1]: 0.8457±0.0039 m^2/g
- surface area ([1]; listed as Desvenlafaxine succinate): approximately 0.8457±0.0039 m^2/g
- D50 (v) particle size [2, 3]: approximately 41 μm
- D90 (v) particle size [2, 3]: approximately 155 μm
- D10 (v) particle diameter less than ([2]; summary statement): approximately 4 μM
SMILES: CN(C)CC(c1ccc(O)cc1)C1(O)CCCCC1 (centres unmarked) [desvenlafaxine succinate]
